Experimental data published in patent publication US10906915B2, “Substituted pyrazoloazepin-4-ones and their use as phosphodiesterase inhibitors” (LEO Pharma A/S, priority 2016, dated 2021).

Target: human PDE4D catalytic domain (UniProt no. Q08499) (Homo sapiens (Human), UniProt Q08499)
Test: PDE4 assay (TR-FRET, FAM-cAMP cleavage)
Assay type: biochemical
Settings: human PDE4D catalytic domain; molar concentration giving 50% inhibition of substrate cleavage; read-out: PDE4 IC50 range
Experimental: The human PDE4D catalytic domain (UniProt no. Q08499 [[…]]) was incubated with a mixture of non-labelled cAMP (cyclic adenosine monophosphate) and fluorescein amidite (FAM) conjugated cAMP and titrated test or reference compound. Following brief incubation the enzymatic reaction was stopped by addition of binding buffer containing nanoparticles with immobilized trivalent metal ions capable of binding 1) AMP phospho groups and 2) terbium (Tb) donor fluorophores. Subsequent excitation of the Tb donor triggers time-resolved FRET to adjacent FAM acceptor molecules resulting in light emission. In the presence of a PDE4 inhibitor, AMP generation was reduced resulting in a lower fluorescence signal. The cAMP phosphodiester is not bound by the detection system.
The results were calculated as the molar concentrations resulting in 50% inhibition of the substrate cleavage compared to controls samples, and are expressed as a range of IC50 (nM).

Sequence of human PDE4D catalytic domain (Q08499 380-740 limits assumed): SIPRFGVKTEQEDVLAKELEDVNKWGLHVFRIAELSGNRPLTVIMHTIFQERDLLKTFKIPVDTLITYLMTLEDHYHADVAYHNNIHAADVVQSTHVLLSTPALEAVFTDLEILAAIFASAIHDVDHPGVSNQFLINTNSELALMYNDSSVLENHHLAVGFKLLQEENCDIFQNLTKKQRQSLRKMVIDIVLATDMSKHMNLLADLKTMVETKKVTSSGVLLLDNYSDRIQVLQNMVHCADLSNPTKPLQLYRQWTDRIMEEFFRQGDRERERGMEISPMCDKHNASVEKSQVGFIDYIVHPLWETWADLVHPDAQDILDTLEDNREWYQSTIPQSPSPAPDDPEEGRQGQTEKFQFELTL

Row | Compound | IC50 [µM]
1 | CCc1nn(CCCOC(=O)c2cc(C#N)ccc2F)c2c1C(=O)NCC1(CCOCC1)C2 [Example 56, 3-(3-ethyl-4-oxo-spiro[6,8-dihydro-5H-pyrazolo[4,3-c]azepine-7,4′-tetrahydropyran]-1-yl)propyl 5-cyano-2-fluoro-benzoate] | < 0.1
2 | CCc1nn(CCCOC(=O)c2ccc3c(c2)OCO3)c2c1C(=O)NCC1(CCOCC1)C2 [Example 57, 3-(3-ethyl-4-oxo-spiro[6,8-dihydro-5H-pyrazolo[4,3-c]azepine-7,4′-tetrahydropyran]-1-yl)propyl 1,3-benzodioxole-5-carboxylate] | < 0.1
3 | CCc1nn(CCCOC(=O)c2ccc(OC)c(C)c2)c2c1C(=O)NCC1(CCOCC1)C2 [Example 58, 3-(3-ethyl-4-oxo-spiro[6,8-dihydro-5H-pyrazolo[4,3-c]azepine-7,4′-tetrahydropyran]-1-yl)propyl 4-methoxy-3-methyl-benzoate] | < 0.1
4 | CCc1nn(CCCOC(=O)c2ccc(C)c(OC)c2)c2c1C(=O)NCC1(CCOCC1)C2 [Example 59, 3-(3-ethyl-4-oxo-spiro[6,8-dihydro-5H-pyrazolo[4,3-c]azepine-7,4′-tetrahydropyran]-1-yl)propyl 3-methoxy-4-methyl-benzoate] | < 0.1
5 | CCc1nn(CCCOC(=O)c2ccc(C)cc2OC)c2c1C(=O)NCC1(CCOCC1)C2 [Example 60, 3-(3-ethyl-4-oxo-spiro[6,8-dihydro-5H-pyrazolo[4,3-c]azepine-7,4′-tetrahydropyran]-1-yl)propyl 2-methoxy-4-methyl-benzoate] | < 0.1
6 | CCOc1cccc(C(=O)OCCCn2nc(CC)c3c2CC2(CCOCC2)CNC3=O)c1 [Example 61, 3-(3-ethyl-4-oxo-spiro[6,8-dihydro-5H-pyrazolo[4,3-c]azepine-7,4′-tetrahydropyran]-1-yl)propyl 3-ethoxybenzoate] | < 0.1
7 | CCc1nn(CCCOC(=O)c2ccc(OC)c(F)c2)c2c1C(=O)NCC1(CCOCC1)C2 [Example 62, 3-(3-ethyl-4-oxo-spiro[6,8-dihydro-5H-pyrazolo[4,3-c]azepine-7,4′-tetrahydropyran]-1-yl)propyl 3-fluoro-4-methoxy-benzoate] | < 0.1
8 | CCc1nn(CCCOC(=O)c2cc(F)cc(OC)c2)c2c1C(=O)NCC1(CCOCC1)C2 [Example 63, 3-(3-ethyl-4-oxo-spiro[6,8-dihydro-5H-pyrazolo[4,3-c]azepine-7,4′-tetrahydropyran]-1-yl)propyl 3-fluoro-5-methoxy-benzoate] | < 0.1
9 | CCc1nn(CCCOC(=O)c2ccc(OC)cc2F)c2c1C(=O)NCC1(CCOCC1)C2 [Example 64, 3-(3-ethyl-4-oxo-spiro[6,8-dihydro-5H-pyrazolo[4,3-c]azepine-7,4′-tetrahydropyran]-1-yl)propyl 2-fluoro-4-methoxy-benzoate] | < 0.1
10 | CCc1nn(CCCOC(=O)c2ccc(F)c(OC)c2)c2c1C(=O)NCC1(CCOCC1)C2 [Example 65, 3-(3-ethyl-4-oxo-spiro[6,8-dihydro-5H-pyrazolo[4,3-c]azepine-7,4′-tetrahydropyran]-1-yl)propyl 4-fluoro-3-methoxy-benzoate] | < 0.1
11 | CCc1nn(CCCOC(=O)c2cccc(OC)c2F)c2c1C(=O)NCC1(CCOCC1)C2 [Example 66, 3-(3-ethyl-4-oxo-spiro[6,8-dihydro-5H-pyrazolo[4,3-c]azepine-7,4′-tetrahydropyran]-1-yl)propyl 2-fluoro-3-methoxy-benzoate] | < 0.1
12 | CCc1nn(CCCOC(=O)c2cc(OC)ccc2F)c2c1C(=O)NCC1(CCOCC1)C2 [Example 67, 3-(3-ethyl-4-oxo-spiro[6,8-dihydro-5H-pyrazolo[4,3-c]azepine-7,4′-tetrahydropyran]-1-yl)propyl 2-fluoro-5-methoxy-benzoate] | < 0.1
13 | CCc1nn(CCCOC(=O)c2cc(F)ccc2OC)c2c1C(=O)NCC1(CCOCC1)C2 [Example 68, 3-(3-ethyl-4-oxo-spiro[6,8-dihydro-5H-pyrazolo[4,3-c]azepine-7,4′-tetrahydropyran]-1-yl)propyl 5-fluoro-2-methoxy-benzoate] | < 0.1
14 | CCc1nn(CCCOC(=O)c2c(F)cccc2OC)c2c1C(=O)NCC1(CCOCC1)C2 [Example 69, 3-(3-ethyl-4-oxo-spiro[6,8-dihydro-5H-pyrazolo[4,3-c]azepine-7,4′-tetrahydropyran]-1-yl)propyl 2-fluoro-6-methoxy-benzoate] | < 0.1
15 | CCc1nn(CCCOC(=O)c2cccc(F)c2OC)c2c1C(=O)NCC1(CCOCC1)C2 [Example 70, 3-(3-ethyl-4-oxo-spiro[6,8-dihydro-5H-pyrazolo[4,3-c]azepine-7,4′-tetrahydropyran]-1-yl)propyl 3-fluoro-2-methoxy-benzoate] | < 0.1
16 | CCc1nn(CCCOC(=O)c2ccc(F)cc2OC)c2c1C(=O)NCC1(CCOCC1)C2 [Example 71, 3-(3-ethyl-4-oxo-spiro[6,8-dihydro-5H-pyrazolo[4,3-c]azepine-7,4′-tetrahydropyran]-1-yl)propyl 4-fluoro-2-methoxy-benzoate] | < 0.1

Row | Compound | IC50 [µM]
17 | CCc1nn(CCCOC(=O)c2ccc(C)c(Cl)c2)c2c1C(=O)NCC1(CCOCC1)C2 [Example 72, 3-(3-ethyl-4-oxo-spiro[6,8-dihydro-5H-pyrazolo[4,3-c]azepine-7,4′-tetrahydropyran]-1-yl)propyl 3-chloro-4-methyl-benzoate] | < 0.1
18 | CCc1nn(CCCOC(=O)c2ccc(C)cc2Cl)c2c1C(=O)NCC1(CCOCC1)C2 [Example 73, 3-(3-ethyl-4-oxo-spiro[6,8-dihydro-5H-pyrazolo[4,3-c]azepine-7,4′-tetrahydropyran]-1-yl)propyl 2-chloro-4-methyl-benzoate] | < 0.1
19 | CCc1nn(CCCOC(=O)c2cccc(Cl)c2C)c2c1C(=O)NCC1(CCOCC1)C2 [Example 74, 3-(3-ethyl-4-oxo-spiro[6,8-dihydro-5H-pyrazolo[4,3-c]azepine-7,4′-tetrahydropyran]-1-yl)propyl 3-chloro-2-methyl-benzoate] | < 0.1
20 | CCc1nn(CCCOC(=O)c2cc(Cl)ccc2C)c2c1C(=O)NCC1(CCOCC1)C2 [Example 75, 3-(3-ethyl-4-oxo-spiro[6,8-dihydro-5H-pyrazolo[4,3-c]azepine-7,4′-tetrahydropyran]-1-yl)propyl 5-chloro-2-methyl-benzoate] | < 0.1
21 | CCc1nn(CCCOC(=O)c2ccc(C(F)F)cc2)c2c1C(=O)NCC1(CCOCC1)C2 [Example 76, 3-(3-ethyl-4-oxo-spiro[6,8-dihydro-5H-pyrazolo[4,3-c]azepine-7,4′-tetrahydropyran]-1-yl)propyl 4-(difluoromethyl)benzoate] | < 0.1
22 | CCc1nn(CCCOC(=O)c2ccc(F)cc2Cl)c2c1C(=O)NCC1(CCOCC1)C2 [Example 77, 3-(3-ethyl-4-oxo-spiro[6,8-dihydro-5H-pyrazolo[4,3-c]azepine-7,4′-tetrahydropyran]-1-yl)propyl 2-chloro-4-fluoro-benzoate] | < 0.1
23 | CCc1nn(CCCOC(=O)c2cccc(Cl)c2F)c2c1C(=O)NCC1(CCOCC1)C2 [Example 78, 3-(3-ethyl-4-oxo-spiro[6,8-dihydro-5H-pyrazolo[4,3-c]azepine-7,4′-tetrahydropyran]-1-yl)propyl 3-chloro-2-fluoro-benzoate] | < 0.1
24 | CCc1nn(CCCOC(=O)c2cc(F)cc(Cl)c2)c2c1C(=O)NCC1(CCOCC1)C2 [Example 79, 3-(3-ethyl-4-oxo-spiro[6,8-dihydro-5H-pyrazolo[4,3-c]azepine-7,4′-tetrahydropyran]-1-yl)propyl 3-chloro-5-fluoro-benzoate] | < 0.1
25 | CCc1nn(CCCOC(=O)c2c(F)cccc2Cl)c2c1C(=O)NCC1(CCOCC1)C2 [Example 80, 3-(3-ethyl-4-oxo-spiro[6,8-dihydro-5H-pyrazolo[4,3-c]azepine-7,4′-tetrahydropyran]-1-yl)propyl 2-chloro-6-fluoro-benzoate] | < 0.1
26 | CCc1nn(CCCOC(=O)c2ccc(Cl)c(F)c2)c2c1C(=O)NCC1(CCOCC1)C2 [Example 81, 3-(3-ethyl-4-oxo-spiro[6,8-dihydro-5H-pyrazolo[4,3-c]azepine-7,4′-tetrahydropyran]-1-yl)propyl 4-chloro-3-fluoro-benzoate] | < 0.1
27 | CCc1nn(CCCOC(=O)c2cc(F)ccc2Cl)c2c1C(=O)NCC1(CCOCC1)C2 [Example 82, 3-(3-ethyl-4-oxo-spiro[6,8-dihydro-5H-pyrazolo[4,3-c]azepine-7,4′-tetrahydropyran]-1-yl)propyl 2-chloro-5-fluoro-benzoate] | < 0.1
28 | CCc1nn(CCCOC(=O)c2cc(Cl)ccc2F)c2c1C(=O)NCC1(CCOCC1)C2 [Example 83, 3-(3-ethyl-4-oxo-spiro[6,8-dihydro-5H-pyrazolo[4,3-c]azepine-7,4′-tetrahydropyran]-1-yl)propyl 5-chloro-2-fluoro-benzoate] | < 0.1
29 | CCc1nn(CCCOC(=O)c2ccc(F)c(Cl)c2)c2c1C(=O)NCC1(CCOCC1)C2 [Example 84, 3-(3-ethyl-4-oxo-spiro[6,8-dihydro-5H-pyrazolo[4,3-c]azepine-7,4′-tetrahydropyran]-1-yl)propyl 3-chloro-4-fluoro-benzoate] | < 0.1
30 | CCc1nn(CCCOC(=O)c2ccc(Cl)cc2F)c2c1C(=O)NCC1(CCOCC1)C2 [Example 85, 3-(3-ethyl-4-oxo-spiro[6,8-dihydro-5H-pyrazolo[4,3-c]azepine-7,4′-tetrahydropyran]-1-yl)propyl 4-chloro-2-fluoro-benzoate] | < 0.1
31 | CCc1nn(CCCOC(=O)c2ccc(OC)c(Cl)c2)c2c1C(=O)NCC1(CCOCC1)C2 [Example 86, 3-(3-ethyl-4-oxo-spiro[6,8-dihydro-5H-pyrazolo[4,3-c]azepine-7,4′-tetrahydropyran]-1-yl)propyl 3-chloro-4-methoxy-benzoate] | < 0.1
